US9144557B2, “Hematopoietic growth factor mimetic small molecule compounds and their uses” (Ligand Pharmaceuticals Inc., priority 2009, dated 2015)

System: UT7/EPO Cell line
Test: Cell Proliferation Assay (UT7/EPO, ViaLight Plus)
Format: cell-based, human
Conditions: proliferative effect; compounds at 10 uM; UT7/EPO cells starved of EPO overnight; 72 hours at 37° C.; ViaLight Plus kit
Protocol: The primary testing for the examplfied compounds was performed in UT7/EPO Cell line. UT7/EPO is human leukemia cell line, obtained from Dr. Norio Komatsu (Blood, Vol 82 (2), pp 456-464, 1993). These cells express endogenous EPO receptor and are dependant upon EPO for growth and proliferation. Briefly, the cells were starved of EPO overnight and plated in 96 or 384 well plates. The compounds were added to the cells at 10 uM concentration. The plates were then incubated at 37° C. for 72 hours. The proliferative effect of the compounds was measured by a commercially available kit from Lonza (ViaLight Plus).

Structure (SMILES) | Activity (%)
CN(C)c1ccc(C(=O)Nc2ccc(Sc3ccc(NC(=O)c4ccc(N(C)C)cc4)cc3)cc2)cc1 [Compound 408, N,N′-(4,4′-Thiobis(4,1-phenylene))bis(4-(dimethylamino)benzamide)] | 13
O=C(Nc1ccc2[nH]c(-c3ccc(N4CCC5(CC4)OCCO5)cc3)nc2c1)c1ccc(N2CCOCC2)cc1 [Compound 413, N-(2-(4-(1,4-Dioxa-8-azaspiro[4,5]decan-8-yl)phenyl)-1H-benzimidazol-5-yl)-4-morpholinobenzamide] | 19
O=C(Nc1ccc2[nH]c(-c3ccc(N4CCOCC4)s3)nc2c1)c1ccc(N2CCOCC2)cc1 [Compound 418, N-(2-(2-Morpholinothien-5-yl)-1H-benzimidazol-5-yl)-4-morpholinobenzamide] | 11
CN1CCN(c2ccc(-c3nc4cc(NC(=O)c5ccc(N6CCOCC6)cc5)ccc4[nH]3)cc2)CC1 [Compound 423, N-(2-(4-(4-Methylpiperazino)phenyl)-1H-benzimidazol-5-yl)-4-morpholinobenzamide] | 15
O=C(Nc1ccc2[nH]c(-c3ccc(N4CCOCC4)cc3)nc2c1)c1ccccc1O [Compound 427, N-(2-(4-Morpholinophenyl)-1H-benzimidazol-5-yl)-2-hydroxybenzamide] | 15
O=C(Nc1ccc2[nH]c(-c3ccc(N4CCOCC4)cc3)nc2c1)C(=O)Nc1ccc2nc(-c3ccc(N4CCOCC4)cc3)[nH]c2c1 [Compound 434, N,N′-bis-(2-(4-Morpholinophenyl)-1H-benzimidazol-5-yl)oxalamide] | 15
COc1cccc(Nc2nc3cc(NC(=O)c4ccc5[nH]c(-c6ccc(N(C)C)cc6)nc5c4)ccc3[nH]2)c1 [Compound 439, N-(2-(3-Methoxyphenyl)amino-1H-benzimidazol-5-yl)-2-(4-dimethylaminophenyl)-1H-benzimidazole-5-carbamide] | 18
COc1ccc(-c2nc3cc(NC(=O)c4ccc(NC(=O)c5ccc(N(C)C)cc5)cc4)ccc3[nH]2)cc1 [Compound 444, 4-(dimethylamino)-N-(4-((2-(4-methoxyphenyl)-1H-benzo[d]imidazol-5-yl)carbamoyl)phenyl)benzamide] | 19
CS(=O)(=O)Nc1ccc2[nH]c(-c3ccc(C(=O)Nc4ccc(N5CCOCC5)cc4)cc3)nc2c1 [Compound 449] | 16
CC(=O)Nc1ccc2[nH]c(-c3ccc(C(=O)Nc4ccc(N5CCOCC5)cc4)cc3)nc2c1 [Compound 454, 4-(5-Acetamino-1H-benzimidazol-2-yl)-N-(4-morpholinophenyl)benzamide] | 16
O=C(Nc1ccc(N2CCOCC2)cc1)c1ccc(-c2nc3ccccc3[nH]2)cc1 [Compound 458, 4-(1H-Benzimidazol-2-yl)-N-(4-morpholinophenyl)benzamide] | 10
O=C(CNC(=O)c1ccc(-c2ccc(C(=O)NCC(=O)Nc3ccc(N4CCOCC4)cc3)cc2)cc1)Nc1ccc(N2CCOCC2)cc1 [Compound 465, N,N′-bis(2-(4-Morpholinophenylamino)-2-oxoethyl)biphenyl-4,4′-dicarboxamide] | 18
COc1ccc(-c2cc(NC(=O)c3ccc(C(=O)Nc4cc(-c5ccc(OC)cc5)[nH]n4)cc3)n[nH]2)cc1 [Compound 473, N,N′-bis(5-(4-Methoxyphenyl)-1H-pyrazol-3-yl)terephthalamide] | 11
O=C(Nc1ccc2[nH]c(-c3ccc(-c4ccccn4)cc3)nc2c1)c1ccccc1 [Compound 479, N-(2-(4-(Pyridin-2-yl)phenyl)-1H-benzimidazol-5-yl)benzamide] | 15
CCNc1ccc(C(=O)c2ccc(NC(=O)c3ccc(N4CCOCC4)cc3)cc2)cc1 [Compound 484, N-(4-(4-Ethylaminobenzoyl)phenyl)-4-morpholinobenzamide] | 16
O=C(Nc1ccc(C(=O)c2ccc(NC(=O)c3ccsc3)cc2)cc1)c1ccc(N2CCOCC2)cc1 [Compound 490, N-(4-(4-(3-Thienylcarboxamido)benzoyl)phenyl)-4-morpholinobenzamide] | 15
Cc1cc(C(=O)Nc2ccc(C(=O)c3ccc(NC(=O)c4ccc(N5CCOCC5)cc4)cc3)cc2)[nH]n1 [Compound 500, 3-Methyl-N-(4-(4-(4-morpholinobenzamido)benzoyl)phenyl)-1H-pyrazole-5-carboxamide] | 19
O=C(Nc1ccc2c(cnn2-c2ccc(NC(=O)c3ccc4cc[nH]c4c3)cc2)c1)c1ccc(N2CCC(O)CC2)cc1 [Compound 510, N-(4-(5-(4-(4-Hydroxypiperidin-1-yl)benzamido)-1H-indazol-1-yl)phenyl)-1H-indole-6-carboxamide] | 17
O=C(Nc1ccc2c(cnn2-c2ccc(NCC3CC3)cc2)c1)c1ccc(N2CCOCC2)cc1 [Compound 530] | 11

Structure (SMILES) | Activity (%)
O=C(Nc1ccc2nn(-c3ccc([N+](=O)[O-])cc3)cc2c1)c1ccc(N2CCOCC2)cc1 [Compound 540, 4-Morpholino-N-(2-(4-nitrophenyl)-2H-indazol-5-yl)benzamide] | 17
CN1CCN(C(=O)Nc2ccc(-n3ncc4cc(NC(=O)c5ccc(N6CCOCC6)cc5)ccc43)cc2)CC1 [Compound 550, 4-Methyl-N-(4-(5-(4-morpholinobenzamido)-1H-indazol-1-yl)phenyl)piperazine-1-carboxamide] | 9
O=C(Nc1ccc2c(c1)ncn2-c1ccc(NC(=O)C2CC2)cc1)c1ccc(N2CCC(O)CC2)cc1 [Compound 560, N-(4-(5-(4-(4-Hydroxypiperidin-1-yl)benzamido)-1H-benzimidazol-1-yl)phenyl)cyclopropylcarboxamide] | 14
O=C(Nc1ccc(Nc2ccc(NC(=O)c3cccc(O)c3)cc2)cc1)c1cccc(O)c1 [Compound 570, N,N′-(4,4′-Azanediylbis(4,1-phenylene))bis(3-hydroxybenzamide)] | 11
Nc1ccc(C(=O)Nc2ccc(Nc3ccc(NC(=O)c4ccc(N)cc4)cc3)cc2)cc1 [Compound 580, N,N′-(4,4′-Azanediylbis(4,1-phenylene))bis(4-aminobenzamide)] | 16
O=C(Nc1ccc(Nc2ccc(NC(=O)c3ccc4[nH]cnc4c3)cc2)cc1)c1ccc2[nH]cnc2c1 [Compound 590, N,N′-(4,4′-Azanediylbis(4,1-phenylene))bis(1H-benzimidazole-5-carboxamide)] | 12
O=C(Nc1ccc(C(=O)c2ccc(NC(=O)c3ccno3)cc2)cc1)c1ccc(N2CCOCC2)cc1 [Compound 600, 4-Morpholino-N-(4-(4-(isoxazole-5-carboxamido)benzoyl)phenyl)benzamide] | 11
O=C(Nc1ccc(C(=O)c2ccc(NC(=O)c3c[nH]nn3)cc2)cc1)c1ccc(N2CCOCC2)cc1 [Compound 610, 4-Morpholino-N-(4-(4-(1,2,3-triazole-4-carboxamido)benzoyl)phenyl)benzamide] | 14
Cc1cc(C(=O)Nc2ccc(C(=O)c3ccc(NC(=O)c4ccc(N5CCOCC5)cc4)cc3)cc2)cc(Cl)n1 [Compound 620, 4-Morpholino-N-(4-(4-(2-chloro-6-methylpyridine-4-carboxamido)benzoyl)phenyl)benzamide] | 18
O=C(Nc1ccc(N2CCOCC2)cc1)c1ccc(-c2nc3ccc(OCc4ccccc4)cc3[nH]2)cc1 [Compound 639, 4-(6-Benzyloxy-1H-benzo[d]imidazol-2-yl)-N-(4-morpholinophenyl)benzamide] | 15
O=C(Nc1ccc2cc[nH]c2c1)c1ccc(-c2nc3ccc(-c4cccnc4)cc3[nH]2)cc1 [Compound 650, N-(1H-indol-6-yl)-4-(6-(pyridin-3-yl)-1H-benzo[d]imidazol-2-yl)-benzamide] | 13
Cc1noc(COc2ccc3nc(-c4ccc(C(=O)Nc5ccc6cc[nH]c6c5)cc4)[nH]c3c2)n1 [Compound 660, 4-(6-((3-Methyl-1,2,4-oxadiazol-5-yl)methoxy)-1H-benzo[d]imidazol-2-yl)-N-(1H-indol-6-yl)benzamide] | 14
COCCOc1ccc2nc(-c3ccc(C(=O)Nc4ccc(N5CCC(O)CC5)cc4)cc3)[nH]c2c1 [Compound 670, N-(4-(4-Hydroxypiperidin-1-yl)phenyl)-4-(6-(2-methoxyethoxy)-1H-benzo[d]imidazol-2-yl)benzamide] | 8
O=C(C1CC1)N1CCN(c2ccc(-c3nc4ccc(-c5ccc(O)cc5)cc4[nH]3)cc2)CC1 [Compound 680, Cyclopropyl(4-(4-(6-(4-hydroxyphenyl)-1H-benzo[d]imidazol-2-yl)phenyl)piperazin-1-yl)methanone] | 10
O=C(Nc1ccc(C(=O)c2ccc(NC(=O)c3cccc4cc[nH]c34)cc2)cc1)c1ccc(N2CCC(O)CC2)cc1 [Compound 690, N-(4-(4-(4-(4-Hydroxypiperidin-1-yl)benzamido)benzoyl)phenyl)-1H-indolyl-7-carboxamide] | 16
Cn1nccc1C(=O)Nc1ccc(C(=O)c2ccc(NC(=O)c3ccc(N4CCC(O)CC4)cc3)cc2)cc1 [Compound 720, N-(4-(4-(4-(4-Hydroxypiperidin-1-yl)benzamido)benzoyl)phenyl)-1-methyl-1H-pyrazole-5-carboxamide] | 16
Cn1cccc1C(=O)Nc1ccc(C(=O)c2ccc(NC(=O)c3ccc(N4CCC(O)CC4)cc3Cl)cc2)cc1 [Compound 730, N-(4-(4-(2-Chloro-4-(4-hydroxypiperidin-1-yl)benzamido)benzoyl)phenyl)-1-methyl-1H-pyrrole-2-carboxamide] | 18
Cn1cccc1C(=O)Nc1ccc(N(C(=O)c2cccn2C)c2ccc(NC(=O)c3ccc(N4CCC(O)CC4)cc3)cc2)cc1 [Compound 745] | 17
